In series [1] the test system is senescent cells. Nature of the series: SA-b-galactosidase staining of senescent cells. The class given is cell-based. Conditions: 30 μM SP-101 versus untreated control, optical microscope. How it is done:
Specifically, SA-b-galactosidase staining was used. Cells that were not treated with anything were used as a control, and those treated with 30 μM of SP-101 were used as an experimental group. SA-gal staining was performed using a kit (Biovision, K320-250) according to the manufacturer's instructions. Senescent cells were identified as blue-stained cells under an optical microscope.

Series [2] deals with choroidal neovascularization. Nature of the series: Laser-induced CNV model, fluorescein angiography. The class given is in vivo, mice. The note with it: two weeks after laser, compared to Eylea control group. From the text:
Specifically, the mice were anesthetized by intraperitoneal injection of ketamine hydrochloride and xylazine hydrochloride. By using a diode laser with a wavelength of 810 nm, eight photocoagulation spots, each having the size of 75 μm, the intensity of 250 mW, and the time of 50 ms, were made in concentric circles among the main retinal vessels around the optic nerve. The rupture of the Bruck's membrane was confirmed by identifying that cavitation bubbles had been formed in the choroid. Immediately after laser irradiation, the experimental groups treated with 10 μM, 50 μM, and 100 μM of SP-101, and phosphate buffered saline and Eylea, which were used as control groups, were injected into the vitreous cavity. Two weeks after laser irradiation, fluorescein angiography was performed thereon using a confocal scanning laser fundus camera. After fluorescein-dextran was rapidly injected intravenously, images thereof were taken at the beginning (2 min) and late (10 min).

The nature of series [3]: Macromolecular formation of SP-101 by ROS (TEM/SEM). It is filed as physicochemical. The note with it: 1 mM and 10 mM in water, stirred 24 hours. As to the method: Specifically, 1 mM SP-101 and 10 mM SP-101 were each dissolved in water and stirred for 24 hours. A drop of an aqueous solution of SP-101 was placed on a formvar/carbon-coated copper grid and evaporated under atmospheric conditions. The sample was stained with a 2 wt % uranyl acetate solution, evaporated for 1 minute, and then the excess solution was removed therefrom by using a filter paper.

Series [4] relates to senescent cells. Put plainly: Cytotoxicity of SP-101, MTT cell viability. It is filed as cell-based. The note with it: 5 μM to 30 μM SP-101, 24 hours. As to the method:
(§1) Specifically, the cell viability of IMR90 and senescent cells against SP-101 was evaluated by identifying the reduction of 3-(4,5-dimethylthiazol-2-yl)-2,5-diphenyltetrazolium bromide (MTT) to insoluble formazan. Cells were seeded at a density of 5×10^3 cells per well in a 96-well plate and cultured overnight, followed by treatment with different concentrations of SP-101 in DMEM medium containing 10% FBS and cultured for 24 hours. Then, the cells were cultured with MTT, and then the crystallized formazan was quantified by measuring the absorbance thereof at 595 nm by using an ELISA plate reader. Results were expressed as percent viability=[(A550 (treated cells)−background value)/(A550 (untreated cells)−background value)]×100.

The nature of series [5]: Self-assembly of SH-KLAKLAKRGD (TEM, size). It is filed as physicochemical. Conditions: dissolved in water (1 mM and 10 mM), stirred 24 hours. As to the method:
SH-KLAKLAKRGD (1 mM and 10 mM) was dissolved in water and stirred for 24 hours. A drop of SH-KLAKLAKRGD aqueous solution was placed on a formvar/carbon coated copper grid and allowed to evaporate at ambient conditions. The sample was stained with 2 wt % uranyl acetate solution and evaporated for 1 minute, and the excess solution was removed with filter paper. The specimen was observed using a JEM-1400 TEM operating at 120 kV.

Series [6] has as its system senescent cells. Nature of the series: Cytotoxicity of SH-KLAKLAKRGD, MTT cell viability. It is filed as cell-based. The note with it: different concentrations, 24 hours. How it is done: as §1, with “SH-KLAKLAKRGD” for “SP-101”, “MTT” for “3-(4,5-dimethylthiazol-2-yl)-2,5-diphenyltetrazolium bromide (MTT)”

SH = thiol (–SH) group at the N-terminus

For the substance “(3-((3-(3,5-dimercaptobenzamido)propyl)dimethylammonium)propyl)triphenylphosphonium [SP-101]”, the “reduction of senescent cells (blue-stained cells)” value in the series on senescent cells [1] was “senescent cells were reduced”. In addition, the “volume of choroidal neovascularization” value in series [2] (10 μM SP-101 injected into the vitreous cavity) and in series [2] (100 μM SP-101 injected into the vitreous cavity) was “decreased by about twice compared to the Eylea control group” in each case. The “macromolecule formation by oxidation” value in series [3] is “oxidized to form a macromolecule”. Further, in the series on senescent cells [4], the “killing of senescent cells versus normal cells IMR90” value is given as “more senescent cells were killed than normal cells”.

Regarding “SH-KLAKLAKRGD: mitochondria-targeting compound prepared by solid phase peptide synthesis; NH2-KLAKLAKRGD reacted with disulfide 4, structure in FIG. 10 ({SH}-KLAKLAKRGD-NH2; also: N-terminal thiol group from reaction with disulfide 4)”, the “size of the polymerized SH-KLAKLAKRGD” value in series [5] amounted to 350±100 nm. The “macromolecule formation (TEM image)” value in series [5] (TEM) is recorded as “showed a macromolecule in which peptides were polymerized”. Also, the “cell viability in senescent cells versus IMR90 normal cell” value with senescent cells [6] is listed as “cell viability in senescent cells was lower than that in IMR90”.

These data come from US20220153783A1, “MITOCHONDRIA-TARGETING COMPOUND AND COMPOSITION COMPRISING SAME FOR TREATING OR PREVENTING AGING-RELATED DISEASES” (FUSION BIOTECHNOLOGY CO., LTD., priority 2019, published 2022).
